Experimental data from ChEMBL document CHEMBL1125551, “Conformationally restricted analogues of disoxaril: a comparison of the activity against human rhinovirus types 14 and 1A” (1992).
Converted amounts (≈) assume the structure as drawn.

Legend:
[1] = tested on: Human rhinovirus 1A; test: In vitro determined against HRV-1A in a plaque reduction assay; format: functional
[2] = tested on: rhinovirus B14; test: In vitro determined against HRV-14 in a plaque reduction assay; format: functional, human rhinovirus type 14; conditions: Rhinovirus B

Row | Structure (SMILES) | MIC [1] [µM] | MIC [2] [µM]
1 | Cc1cc(CCC#CCOc2c(Cl)cc(C3=NCCO3)cc2Cl)on1 | > 8.2 | 0.26 (≈ 0.0986 µg/mL)
2 | Cc1cc(CC/C=C\COc2c(Cl)cc(C3=NCCO3)cc2Cl)on1 | 4.72 (≈ 1.8 µg/mL) | 3.9 (≈ 1.49 µg/mL)
3 | Cc1cc(CCCOc2c(Cl)cc(C3=NCCO3)cc2Cl)on1 | 0.46 (≈ 0.163 µg/mL) | 8.14 (≈ 2.89 µg/mL)
4 | Cc1cc(CC/C=C/COc2c(Cl)cc(C3=NCCO3)cc2Cl)on1 | 2.25 (≈ 0.858 µg/mL) | 0.44 (≈ 0.168 µg/mL)
5 | Cc1cc(CCCCCOc2c(Cl)cc(C3=NCCO3)cc2Cl)on1 [WIN-54954] | 2.5 (≈ 0.958 µg/mL) | 1.2 (≈ 0.46 µg/mL)
